{
  "source": "patent US10610522B2",
  "about": "“Methods for retreating irritable bowel syndrome (IBS)” (Salix Pharmaceuticals, Inc., priority 2014, dated 2020)",
  "test_system": "C. difficile infection (CDI)",
  "experiment": "Double-blind non-inferiority trial rifaximin 400 mg TID vs vancomycin 125 mg QID, 10 days, C. difficile infection",
  "format": "in vivo, human",
  "description": "Criteria for entry into the trial were: • Age >=18 years old; • Had acute diarrhea at screening defined as >=3 unformed stools in the last 24 hours and at least one sign of enteric infection (fever, nausea, lose of appetite, vomiting, severe abdominal pain/discomfort); and • a positive C. diff stool toxin assay Endpoint:\nThe primary efficacy endpoint of the study was defined as the proportion of subjects achieving clinical success. Specifically, clinical success was defined as the absence of severe abdominal pain at Test of Cure (TOC), absence of fever (<38° C.) at TOC, and <3 unformed stools for two consecutive days at TOC.\nClinical success was defined as the: Absence of severe abdominal pain at TOC, absence of fever (<38° C.) at TOC, and <3 unformed stools for two consecutive days at TOC. Test of cure defined as Day 14+/−1 day.\nRecurrence was defined to be a diarrhea and a positive C. diff stool toxin assay that occurred after initial clinical success.\nGlobal cure of diarrhea was defined as subjects who were cured of diarrhea at TOC without recurrence at follow up.\nSubjects who completed the study without achieving clinical success were censored at Day 14",
  "key": {"[1]": {"conditions": "Rifaximin N = 117, Vancomycin N = 115"}, "[2]": {"conditions": "adjusting for concomitant medication usage, Rifaximin N = 109, Vancomycin N = 112"}, "[3]": {"conditions": "adjusting for concomitant medication usage, Rifaximin N = 117, Vancomycin N = 115"}, "[4]": {"conditions": "after initial clinical success, Rifaximin N = 67, Vancomycin N = 73"}, "[5]": {"conditions": "all subjects, Rifaximin N = 117, Vancomycin N = 115"}, "[6]": {"conditions": "at TOC, Rifaximin N = 108, Vancomycin N = 111"}, "[7]": {"conditions": "at TOC, Rifaximin N = 117, Vancomycin N = 115"}, "[8]": {"conditions": "cured at TOC without recurrence at follow up, Rifaximin N = 117, Vancomycin N = 115"}, "[9]": {"conditions": "subgroup Age <65, at TOC, Rifaximin N = 69, Vancomycin N = 62"}, "[10]": {"conditions": "subgroup Age >=65, at TOC, Rifaximin N = 39, Vancomycin N = 49"}, "[11]": {"conditions": "subgroup Female, at TOC, Rifaximin N = 68, Vancomycin N = 64"}, "[12]": {"conditions": "subgroup Male, at TOC, Rifaximin N = 40, Vancomycin N = 47"}},
  "data": [
    {"smiles": "CN[C@H](CC(C)C)C(=O)N[C@H]1C(=O)N[C@@H](CC(N)=O)C(=O)N[C@H]2C(=O)N[C@H]3C(=O)N[C@H](C(=O)N[C@H](C(=O)O)c4cc(O)cc(O)c4-c4cc3ccc4O)[C@H](O)c3ccc(c(Cl)c3)Oc3cc2cc(c3O[C@@H]2O[C@H](CO)[C@@H](O)[C@H](O)[C@H]2O[C@H]2C[C@](C)(N)[C@H](O)[C@H](C)O2)Oc2ccc(cc2Cl)[C@H]1O", "note": "[Vancomycin]", "values": [
      {"measurement": "Continuing Illness No: % of subjects", "setting": "[1]", "result": 86, "unit": "%"},
      {"measurement": "Continuing Illness No: number of subjects", "setting": "[1]", "result": 99},
      {"measurement": "Continuing Illness Yes: % of subjects", "setting": "[1]", "result": 14, "unit": "%"},
      {"measurement": "Continuing Illness Yes: number of subjects", "setting": "[1]", "result": 16},
      {"measurement": "Global Cure of Diarrhea No: % of subjects", "setting": "[1]", "result": 26, "unit": "%"},
      {"measurement": "Global Cure of Diarrhea No: number of subjects", "setting": "[1]", "result": 30},
      {"measurement": "Diarrhea No: % of subjects", "setting": "[2]", "result": 73, "unit": "%"},
      {"measurement": "Diarrhea No: number of subjects", "setting": "[2]", "result": 82},
      {"measurement": "Diarrhea Yes: % of subjects", "setting": "[2]", "result": 27, "unit": "%"},
      {"measurement": "Diarrhea Yes: number of subjects", "setting": "[2]", "result": 30},
      {"measurement": "Clinical Success No: % of subjects", "setting": "[3]", "result": 40, "unit": "%"},
      {"measurement": "Clinical Success No: number of subjects", "setting": "[3]", "result": 46},
      {"measurement": "Clinical Success Yes: % of subjects", "setting": "[3]", "result": 60, "unit": "%"},
      {"measurement": "Clinical Success Yes: number of subjects", "setting": "[3]", "result": 69},
      {"measurement": "No Recurrence of CDI: % of subjects", "setting": "[4]", "result": 86, "unit": "%"},
      {"measurement": "No Recurrence of CDI: number of subjects", "setting": "[4]", "result": 63},
      {"measurement": "Recurrence of CDI: % of subjects", "setting": "[4]", "result": 14, "unit": "%"},
      {"measurement": "Recurrence of CDI: number of subjects", "setting": "[4]", "result": 10},
      {"measurement": "Recurrence No: % of subjects", "setting": "[5]", "result": 93, "unit": "%"},
      {"measurement": "Recurrence No: number of subjects", "setting": "[5]", "result": 105},
      {"measurement": "Recurrence Yes: % of subjects", "setting": "[5]", "result": 7, "unit": "%"},
      {"measurement": "Recurrence Yes: number of subjects", "setting": "[5]", "result": 10},
      {"measurement": "Diarrhea No: % of subjects", "setting": "[6]", "result": 81, "unit": "%"},
      {"measurement": "Diarrhea No: number of subjects", "setting": "[6]", "result": 90},
      {"measurement": "Diarrhea Yes: % of subjects", "setting": "[6]", "result": 19, "unit": "%"},
      {"measurement": "Diarrhea Yes: number of subjects", "setting": "[6]", "result": 21},
      {"measurement": "Fever No: % of subjects", "setting": "[6]", "result": 98, "unit": "%"},
      {"measurement": "Fever No: number of subjects", "setting": "[6]", "result": 109},
      {"measurement": "Fever Yes: % of subjects", "setting": "[6]", "result": "2 (2%)"},
      {"measurement": "Fever Yes: number of subjects", "setting": "[6]", "result": "2 (2%)"},
      {"measurement": "Severe Abdominal Pain/Discomfort No: % of subjects", "setting": "[6]", "result": 86, "unit": "%"},
      {"measurement": "Severe Abdominal Pain/Discomfort No: number of subjects", "setting": "[6]", "result": 95},
      {"measurement": "Severe Abdominal Pain/Discomfort Yes: % of subjects", "setting": "[6]", "result": 14, "unit": "%"},
      {"measurement": "Severe Abdominal Pain/Discomfort Yes: number of subjects", "setting": "[6]", "result": 16},
      {"measurement": "Clinical Success No: % of subjects", "setting": "[7]", "result": 37, "unit": "%"},
      {"measurement": "Clinical Success No: number of subjects", "setting": "[7]", "result": 42},
      {"measurement": "Clinical Success Yes: % of subjects", "setting": "[7]", "result": 64, "unit": "%"},
      {"measurement": "Clinical Success Yes: number of subjects", "setting": "[7]", "result": 73},
      {"measurement": "Global Cure of Diarrhea Yes: % of subjects", "setting": "[8]", "result": 74, "unit": "%"},
      {"measurement": "Global Cure of Diarrhea Yes: number of subjects", "setting": "[8]", "result": 85},
      {"measurement": "Adjusted mean number of unformed stools-ANOVA", "setting": "during the treatment period, Rifaximin N = 117, Vancomycin N = 115", "result": 1.90},
      {"measurement": "Diarrhea: % of subjects", "setting": "[9]", "result": 19, "unit": "%"},
      {"measurement": "Diarrhea: number of subjects", "setting": "[9]", "result": 12},
      {"measurement": "No Diarrhea: % of subjects", "setting": "[9]", "result": 81, "unit": "%"},
      {"measurement": "No Diarrhea: number of subjects", "setting": "[9]", "result": 50},
      {"measurement": "Diarrhea: % of subjects", "setting": "[10]", "result": 18, "unit": "%"},
      {"measurement": "Diarrhea: number of subjects", "setting": "[10]", "result": 9},
      {"measurement": "No Diarrhea: % of subjects", "setting": "[10]", "result": 82, "unit": "%"},
      {"measurement": "No Diarrhea: number of subjects", "setting": "[10]", "result": 40},
      {"measurement": "Diarrhea: % of subjects", "setting": "[11]", "result": 17, "unit": "%"},
      {"measurement": "Diarrhea: number of subjects", "setting": "[11]", "result": 11},
      {"measurement": "No Diarrhea: % of subjects", "setting": "[11]", "result": 83, "unit": "%"},
      {"measurement": "No Diarrhea: number of subjects", "setting": "[11]", "result": 53},
      {"measurement": "Diarrhea: % of subjects", "setting": "[12]", "result": 21, "unit": "%"},
      {"measurement": "Diarrhea: number of subjects", "setting": "[12]", "result": 10},
      {"measurement": "No Diarrhea: % of subjects", "setting": "[12]", "result": 79, "unit": "%"},
      {"measurement": "No Diarrhea: number of subjects", "setting": "[12]", "result": 37}
    ]}
  ]
}
